The structures appear in SMILES notation. Entries after “also recorded” stand apart in the source; their conditions may differ.

The source of these data is patent US11529319B2, “Methods and compositions for treating neurological conditions” (priority 2017, dated 2022).

The test system of series [1] is MeCP2 knockout (KO) mouse model of Rett syndrome. In words: Rotarod test. It counts as in vivo. Conditions: MeCP2 KO mice. As for the experimental part:
Mice were placed on the stationary cylinder and the cylinder then slowly accelerated to 10 revolutions/min. The total time at 10 rpm before a fall from the cylinder was recorded.

Series [2] concerns Mef2c-het mice. In words: Hole-board exploration test. It counts as in vivo, mouse. The settings on record: chronic treatment. From the text: (§1) Mef2c heterozygous knockout (Mef2c-het) mice were created by crossing mice carrying the conventional exon 2-deleted allele of Mef2c (Mef2c^Δ2) with their WT littermates. All procedures for maintaining and using these mice were approved by the Institutional Animal Care and Use Committee (IACUC) at the Sanford Burnham Prebys Medical Discovery Institute. In this study, only male mice were used for the behavioral assays to insure uniformity (either with or without drug treatment). Chronic treatment with memantine, NitroSynapsin (both at 4.6 μmol/kg body weight) or vehicle (PBS) was administered via i.p. injection, twice a day for at least 3 months, starting at ˜2.5 weeks of age. This age was chosen because mice are still juveniles and thus treatment could begin in human at an equivalent stage.
The apparatus consisted of a Plexiglas cage (32×32×30 cm) with 16 holes in a format of 4×4 (each 3 cm in diameter) equally spaced on an elevated floor. The explorative activity including the number of head-dips and the time spent head-dipping were measured for 5 min.

The test system of series [3] is hippocampal slices of Tsc2+/- mice. The series can be described thus: CA1 LTP in acute hippocampal slices by multielectrode array. It counts as cell-based, mouse. The settings on record: 1-2 μM, 4-hour treatment; monitored 55-65 min after induction; vs vehicle. The protocol: Long-term potentiation (LTP), a form of synaptic plasticity elicited in response to excitatory input and thought to represent an electrical correlate of learning and memory in the hippocampus, was examined. Field recordings in the CA1 region of hippocampal slices were used to investigate the effects of Tsc2 mutation on this form of synaptic plasticity. For this purpose, acute hippocampal slices from one-month-old mice were prepared and field recordings in a microelectrode array (MEA) chamber perfused with artificial cerebrospinal fluid (ACSF) were performed. fEPSPs (field excitatory postsynaptic potentials) were recorded in the CA1 region after evoking LTP via stimulation of the Schaffer collaterals (four repetitions of 100 Hz pulses for one second each). The initial slope of the fEPSP was analyzed to assess LTP. However, with a stronger induction protocol as used here, we observed a decrease in LTP, monitored 60 min after induction.

Series [4] concerns Tsc2+/- mice. The series can be described thus: Quantitative confocal immunohistochemistry of synaptophysin (SY38) in hippocampus. The class given is in vivo, mouse. The settings on record: i.p. loading 92 μmol/kg then 4.6 μmol/kg twice daily, two and a half days. The text has this: To determine the effects of […] antagonists on the brain histology of Tsc2^+/- mice, quantitative confocal immunohistochemistry was used to analyze coronal brain slices from 3-month-old wild-type (WT) and Tsc2^+/- mice that had been treated for two and a half days with vehicle, memantine or NitroSynapsin. Tsc2+/- mice on the C57Bl/6J background received via the intraperitoneal route either vehicle or a loading dose of 92 μmol/kg of memantine or NitroSynapsin, followed by 4.6 μmol/kg of drug twice daily for two-and-a-half-days, with the last dose 3 hours prior to the behavioral training session (for a total of five drug injections). This dosing regimen yields an effective concentration of drug at NMDARs in the brain of 1-10 μM.

Series [5] concerns Mef2c-het mice. In words: Three-chamber social interaction test. The class given is in vivo, mouse.
Excerpt: as §1
This test was originally developed by the Crawley group for an animal model of autism. Autistic individuals show aberrant reciprocal social interaction, including low levels of social approach and unusual modes of interaction. A social interaction apparatus consisting of a rectangular, three chambered Plexiglas box, with each chamber measuring 20 cm (length)×40.5 cm (width)×22 cm (height) was used. Walls dividing the chamber were clear with small semicircular openings (3.5 cm radius), allowing access into each chamber. The middle chamber was empty and the two outer chambers contained small, round wire cages (Galaxy Cup, Spectrum Diversified Designs, Inc., Streetsboro, Ohio). The mice were habituated to the entire apparatus for 5 min. To assess social interaction, mice were returned to the middle chamber, this time with a stranger mouse (C57BL/6J of the same sex tethered to the wire cage). Time spent in the chamber with the stranger mouse and time spent in the empty wire cage-containing chamber were each recorded for 5 min, as was the number of entries into each chamber. Experimental mice were tested once, and the stranger C57BL/6J mice were used for up to 6 tests.

Series [6] relates to Tsc2+/- mice. In words: Fear conditioning test. It counts as in vivo, mouse. Conditions: two-and-a-half-day treatment, last dose 3 hours before training. From the text:
To determine the effects of eNMDAR antagonists on the brain histology of Tsc2^+/− mice, quantitative confocal immunohistochemistry was used to analyze coronal brain slices from 3-month-old wild-type (WT) and Tsc2^+/− mice that had been treated for two and a half days with vehicle, memantine or NitroSynapsin. Tsc2+/− mice on the C57Bl/6J background received via the intraperitoneal route either vehicle or a loading dose of 92 μmol/kg of memantine or NitroSynapsin, followed by 4.6 μmol/kg of drug twice daily for two-and-a-half-days, with the last dose 3 hours prior to the behavioral training session (for a total of five drug injections). This dosing regimen yields an effective concentration of drug at NMDARs in the brain of 1-10 μM.
Fear conditioning tests were performed on three-month-old Tsc2^+/+ and Tsc2^+/− mice to explore the effects of eNMDAR antagonists on anxiety, and learning and memory deficits in Tsc2^+/− mice. Vehicle, memantine or NitroSynapsin were administered for two and a half days, with the last dose of drug occurring 3-hours prior to the first training session. […] Freezing time of three-month-old WT and Tsc2^+/− transgenic mice treated with vehicle, memantine or NitroSynapsin in fear-conditioning trials. […] Values are mean+s.e.m. (n=7-12 mice per group). […]

For `CCC12CC3(N)CC(CC)(C1)CC(O[N+](=O)[O-])(C3)C2` [NitroSynapsin], the “rotarod performance (time at 10 rpm before a fall)” value in series [1] is recorded as “improved motor behavior; also recorded: significantly improved motor performance”. Besides, the “head-dips per hole (repetitive behavior)” value with Mef2c-het mice [2] was “corrected the abnormal repetitive behavior”. Moreover, the “CA1 LTP in Tsc2+/- hippocampal slices” value in series [3] was “all improved; also recorded: improved LTP; also recorded: able to reverse deficits in synaptic plasticity; also recorded: improvement of LTP”. In addition, in the series on Tsc2+/- mice [4], the “synaptophysin (SY38) staining in hippocampus (% area)” value was “all improved; also recorded: significantly more staining; also recorded: reversed the synaptic loss; also recorded: raised the synaptic signal to WT levels”. Moreover, the “social ability: time in chambers, number and duration of visits” value in the series on Mef2c-het mice [5] (Mef2c-het mice, chronic treatment) is reported as “improved this abnormal social behavior; also recorded: rescued aberrant social ability”. Besides, the “number of social visits (S1 minus E), NitroSynapsin vs equimolar memantine” value in the series with Mef2c-het mice [5] (Mef2c-het mice, head-to-head comparison) is listed as “demonstrated the superiority of NitroSynapsin; also recorded: significantly greater than that of memantine (M)-treated mice”. In the series with Mef2c-het mice [5] (WT mice, 3-month treatment), the “social behavior of WT mice” value is on record as “did not significantly alter the social behavior of WT mice”. In the series on Tsc2+/- mice [6], the “context discrimination (freezing time, training vs novel context)” value was “all improved; also recorded: normalizing context discrimination; also recorded: improved the ability to discriminate context in Tsc2^+/− mice to normal WT levels; also recorded: normalized context discrimination”.
